Active and inactive are the calls of the source. The calls are words filed in the database; no cut-off is given here.
How the values were obtained:
[1] = Binding affinity to NRAS-RNA G-quadruplex (unknown origin) at 1 uM after 24 hrs by spectrophotometric method
[2] = test system: MCF7; test: Cytotoxicity against human MCF7 cells after 48 hrs relative to control; format: cell-based; settings: mcf7, 48 h
[3] = organism: Homo sapiens; test: Inhibition of NT-647 dye-labeled BG4 antibody binding to human 5'-UGAUGAGUGUGAGUAGUA-3' RNA by MST analysis
[4] = Binding affinity to RNA hairpin (unknown origin) at 1 uM after 24 hrs by spectrophotometric method
[5] = Binding affinity to 5'- FAM-labeled human 5'-UGAUGAGUGUGAGGAGGA-3' RNA G-quadruplex after 5 mins by MST analysis
[6] = organism: Homo sapiens; test: Binding affinity to internal ribosome entry site A RNA G-quadruplex region of human VEGF-A 5'-UTR at 10 uM by PCR stop assay
[7] = Binding affinity to biotin-labeled human wild type internal ribosome entry site A RNA G-quadruplex by SPR analysis
[8] = test system: MCF7; test: Cytotoxicity against human MCF7 cells assessed as reduction in cell viability; format: cell-based
[9] = Binding affinity to ADAM10 RNA G-quadruplex (unknown origin) at 1 uM after 24 hrs by spectrophotometric method
[10] = Binding affinity to biotin-labeled DNA hairpin (unknown origin) by SPR analysis
[11] = organism: Homo sapiens; test: Binding affinity to human 5'-UCGGGCCGGGAGGAGCCGCAGCCGGAA-3' […] at 1 uM after 24 hrs by spectrophotometric method
[12] = Binding affinity to RNA (unknown origin) at 1 uM after 24 hrs by spectrophotometric method
[13] = test system: MCF7; test: Effect on human VEGF-A transcription expressed in human MCF7 cells assessed as Met luciferase gene expression at 0.1875 to 3 uM by RT-PCR analysis; format: functional, cell-based
[14] = Binding affinity to BCL-2 RNA G-quadruplex (unknown origin) at 1 uM after 24 hrs by spectrophotometric method
[15] = organism: Homo sapiens; test: Binding affinity to 5'- FAM-labeled human 5'-UGAUGAGUGUGAGUAGUA-3' RNA at 100 uM after 5 mins by MST analysis
[16] = test system: Mus musculus; test: Toxicity in nude Balb/c mouse xenografted with human MCF7 cells assessed as change in body weight at 7.5 mg/kg, ip qd for 20 days; format: organism-based; settings: in vivo, 480 h
[17] = Binding affinity to c-MYC Pu27 DNA G-quadruplex (unknown origin) at 1 uM after 24 hrs by spectrophotometric method
[18] = organism: Homo sapiens; test: Destabilization of human wild type internal ribosome entry site A RNA G-quadruplex expressed in MCF7 cells assessed as down regulation of VEGF-A translation at 1.5 uM after 24 hrs by dual-luciferase reporter gene assay relative to control; format: cell-based
[19] = Binding affinity to 5'- FAM-labeled c-Kit1 G-quadruplex DNA (unknown origin) up to 100 uM after 5 mins by MST analysis
[20] = organism: Homo sapiens; test: Binding affinity to internal ribosome entry site A RNA G-quadruplex region of VEGF-A protein in human MDA-MB-231 cells assessed as VEGF-A protein induced cell migration at 3 uM after 24 hrs by MTT dye based Transwell assay relative to control
[21] = organism: Homo sapiens; test: Destabilization of human wild type internal ribosome entry site A RNA G-quadruplex assessed as melting temperature at 5 uM by CD spectra method (reference value: 80.9 +/- 0.8 degreeC)

Activity [1]: inactive | inhibition [3]: Active | Activity [4]: inactive | Kd [5]: 13.4 to 20.5 µM | Activity [6]: inactive | Kd [7]: 0.928 µM | Activity [9]: inactive | Kd [10]: 21.2 µM | Activity [11]: inactive | Activity [12]: inactive | Activity [14]: inactive | Activity [15]: inactive | Activity [17]: inactive | Activity [19]: Active | Tm [21]: 62.2 °C
SMILES: CCN(CC)CCOc1ccc(Nc2nc(-c3ccccc3NC(=O)CCN3CCN(C)CC3)nc3ccccc23)cc1
Activity [2]: 82.7% | IC50 [8]: 12.5 µM | Activity [13]: inactive | Activity [16]: Non-Toxic | Activity [18]: 80% | Activity [20]: 25%
